# Experimental data: ChEMBL document CHEMBL1143886, “In vitro spermicidal activity of peptides from amphibian skin: dermaseptin S4 and derivatives” (Bioorg Med Chem, 2008)
# The source made the active and inactive calls. The rule behind the calls is not given here.
# Legend:
# [1] = test system: Sperm; assay: Inhibition of human sperm motility assessed as decrease in average path velocity by CASA; type: functional
# [2] = test system: Sperm; assay: Inhibition of human sperm motility assessed as decrease in straight line velocity by CASA; type: functional
# [3] = test system: Sperm; assay: Inhibition of human sperm motility at 5 ug/ml after 15 mins by CASA; type: functional
# [4] = test system: Sperm; assay: Inhibition of human sperm motility assessed as decrease in curvilenear velocity by CASA; type: functional, cell-based
# [5] = test system: HeLa; assay: Cytotoxicity against human HeLa cells at above 16 ug/ml after 24 hrs by MTT assay; type: cell-based
# [6] = Inhibition of human sperm motility by Sander-Cramer modified assay; type: functional
# [7] = Inhibition of human sperm motility at 20 ug/ml after 5 mins by CASA; type: functional; set-up: scale not given: the % may be the effect or the level left
# [8] = test system: Sperm; assay: Inhibition of human sperm motility upto 15 mins by CASA; type: functional, cell-based
Compound,Activity [1],Activity [2],Activity [4],Activity [5],EC100 [6],other results
CC(C)C[C@H](NC[C@@H](NC(=O)[C@H](C)NC(=O)[C@H](CC(N)=O)NC(=O)[C@H](CC(C)C)NC(=O)[C@H](C)NC(=O)[C@H](C)NC(=O)[C@H](CCCCN)NC(=O)[C@H](C)NC(=O)[C@H](C)NC(=O)[C@H](C)NC(=O)[C@H](CCCCN)NC(=O)[C@H](CC(C)C)NC(=O)[C@@H](NC(=O)[C@H](CCCCN)NC(=O)[C@H](CCCCN)NC(=O)[C@H](CC(C)C)NC(=O)[C@H](CC(C)C)NC(=O)[C@@H](NC(=O)[C@H](CCCCN)NC(=O)[C@H](Cc1c[nH]c2ccccc12)NC(=O)[C@H](CC(C)C)NC(=O)[C@H](C)N)[C@@H](C)O)C(C)C)C(C)C)C(=O)N[C@H](C(=O)NCC(=O)N[C@@H](C)C(=O)N[C@@H](CC(N)=O)C(=O)N[C@@H](C)C(=O)O)C(C)C,Dose-dependent effect,Dose-dependent effect,Dose-dependent effect,,,Activity [3]: Active
CSCC[C@H](NC(=O)[C@H](Cc1c[nH]c2ccccc12)NC(=O)[C@H](CC(C)C)NC(=O)[C@H](C)N)C(=O)N[C@H](C(=O)N[C@@H](CC(C)C)C(=O)N[C@@H](CC(C)C)C(=O)N[C@@H](CCCCN)C(=O)N[C@@H](CCCCN)C(=O)N[C@H](C(=O)N[C@@H](CC(C)C)C(=O)N[C@@H](CCCCN)C(=O)N[C@@H](C)C(=O)N[C@@H](C)C(=O)N[C@@H](C)C(=O)N[C@@H](CCCCN)C(=O)N[C@@H](C)C(=O)N[C@@H](C)C(=O)N[C@@H](CC(C)C)C(=O)N[C@@H](CC(N)=O)C(=O)N[C@@H](C)C(=O)N[C@H](CN[C@@H](CC(C)C)C(=O)N[C@H](C(=O)NCC(=O)N[C@@H](C)C(=O)N[C@@H](CC(N)=O)C(=O)N[C@@H](C)C(N)=O)C(C)C)C(C)C)C(C)C)[C@@H](C)O,Dose-dependent effect,Dose-dependent effect,Dose-dependent effect,,,
H-ALWKTLLKKVLKAAAK-NH2,Dose-dependent effect,Dose-dependent effect,Dose-dependent effect,Toxic,25 µg/mL,
H-ALWKTLLKKVLKAAAKAALNAVLVGANA-OH [listing 1 of 2 here],,,,Toxic,,
H-ALWKTLLKKVLKAAAKAALNAVLVGANA-OH [listing 2 of 2 here],,,,,,Activity [7]: 100%
H-ALWMTLLKKVLKAAAKAALNAVLVGANA-NH2 [listing 1 of 2 here],,,,Toxic,,
H-ALWMTLLKKVLKAAAKAALNAVLVGANA-NH2 [listing 2 of 2 here],,,,,25 µg/mL,
H-ALWMTLLKKVLKAAAKAALNAVLVGANA-OH,,,,,25 µg/mL,
H-LLKKVLKAAAKAALNAVLVGANA-OH,Dose-dependent effect,Dose-dependent effect,Dose-dependent effect,,25 µg/mL,Activity [8]: inactive
